For data set [1], the system named is HEK293H, HEK293T, H4IIe, MCF7 and SH-SY5Y cells. The settings on record: for cytotoxicity,median REPBPA,IC10: median IC10 relative to BPA; for IC10,Median (M): median cytotoxicity of all cell lines; for IC10, median: median cytotoxicity over all cell lines. Here is the method: (§1) Cell culture conditions and bioassay protocols including response detection are provided in Text S2.1–2.4 and Table S3. − Cell viability was determined from cell confluency using an IncuCyte S3 Live-Cell Analysis System (Sartorius AG, Essen, Germany) before and after exposure, except for SH-SY5Y cells (live–dead staining with Nuclear Green LcS1 and propidium iodide, Abcam, UK). For metabolic activation experiments, cell viability was assessed using the ToxBLAzer DualScreen Kit (Thermo Fisher Scientific) to capture the remaining toxicity in ERα-UAS-bla GripTite after treatment with the aCYP catalyst (details in Text S2.4).
For ARE, the concentration that triggered an induction ratio of 1.5 (ECIR1.5) was used as the benchmark value, as detailed in Text S2.5. IC10 values also served as a threshold for data analysis in all assays; only concentrations below IC10 were considered when deriving EC10 or ECIR1.5.
TR indicates whether the cytotoxicity is triggered by specific toxicity mechanisms (TR ≥ 10) or not (0.1< TR< 10). 3 TR=IC10,baseline/IC10 We measured the cytotoxicity of BPA and its alternatives in HEK293H (PPARγ), HEK293T (ERα), H4IIe (AhR CALUX), MCF7 (ARE/MMP), and differentiated SH-SY5Y cells (Table S6). […]
medium, supplemented with 2% B-27 Supplement and 2 mM GlutaMAX Supplement. SH - SY5Y cells were differentiated with 10 µM all-trans retinoic acid prior to the assay.
S2.2: Cell Seeding and Incubation. For all bioassays, cell suspensions in the respective assay medium were dispensed into each well of 384-well plates using a MultiFlo Dispenser (Biotek, (now Agilent), Winooski, VT, U.S.). After seeding, the plates were incubated at 37° C and 5% CO₂ for […]. The final cell densities and plate types were as follows: Black poly-D-lysine […]
6500 cells/well, ERα: 5000 cells/well. White 384-well plates with a clear bottom (Product No.
NYC, U.S.) for AhR: 3250 cells/well. Black Collagen I coated plates were used (Product No.
S2.3: Chemical Dosing and Assay Analysis Procedures. The dosing procedure and high-throughput assay workflow have been described in detail before. 9 The dosing concentrations […]
Stock solutions were then either added directly to the respective cell culture medium or evaporated under nitrogen, followed by replenishment with fresh medium. The final solvent content in each well was kept below 1% for methanol, 0% for acetonitrile.
Dosing plates were prepared as 11 -step serial dilutions using a Hamilton Microlab Star robotic system (Hamilton, Bonaduz, Switzerland), and chemicals were dosed in duplicates by transferring 10 μL twice from the dosing plates to the cell plates . After quantifying cell confluency as described in S2. 4., the exposed cells were incubated at 37° C and 5% CO₂ for an additional 24 h. All chemicals were tested in all assays with at least three independent […]
S2.4: Cell Viability Measurement s and bioanalytical protocols . The confluency as a measure of cell viability was determined with an IncuCyte S3 Live -Cell Analysis System (Sartorius AG, Essen, Germany). With this method the confluency of cells in a microscopy image are normalized to control wells without cells and compared before and after 24 hours of exposure.
This method has been described previously 13. Cell viability of SH-SY5Y cells was measured […]
propidium iodide (PI, Abcam, Cambridge, U.K.).14 Nuclear Green LCS1 is a membrane-permeable dye that stains the nuclei of all cells, whereas PI only enters cells with compromised membrane integrity (non-viable cells). After staining, live cells show green nuclei without red fluorescence, while dead cells display both green and red nuclear fluorescence due to PI […]
intercalation. Cell viability was calculated as the proportion of green-only nuclei relative to the […]
For experiments with the preceding aCYP activation, ERα cell viability was additionally calculated from the readout of the ToxBLAzer reagent. The ToxBLAzer assay was conducted following the manufacturer's instructions (Thermo Fisher, Waltham, MA, U.S.).13 Fluorescence

In the next data set the target is T1, Estrogen Receptor ERα (Homo sapiens, UniProt P03372).
T1 sequence (P03372 311-547 limits assumed): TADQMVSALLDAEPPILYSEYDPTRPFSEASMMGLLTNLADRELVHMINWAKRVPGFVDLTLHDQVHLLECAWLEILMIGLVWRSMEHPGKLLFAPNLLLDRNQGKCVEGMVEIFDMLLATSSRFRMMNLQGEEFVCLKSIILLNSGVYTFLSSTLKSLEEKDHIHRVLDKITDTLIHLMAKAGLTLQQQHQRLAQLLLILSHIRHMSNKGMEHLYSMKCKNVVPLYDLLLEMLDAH
The experiment in a line: aCYP oxidation followed by ERα-UAS-bla GripTite assay (TK-Ratio of effect). The settings on record: for EC10, after oxidation / EC10, before oxidation: ERα; for EC10, after oxidation: after abiotic CYP catalyst; for TKERα: TKERα-Ratio. The class given is cell-based. The procedure: as §1, with “S2.4). […]” for “S2.4).”
The TK-Ratio method was used to evaluate the impact of abiotic CYP oxidation on the potency of tested compounds. […]
For experiments with the preceding aCYP activation, ERα cell viability was additionally calculated from the readout of the ToxBLAzer reagent. The ToxBLAzer assay was conducted following the manufacturer's instructions (Thermo Fisher, Waltham, MA, U.S.).13 Fluorescence intensity was recorded at the start of the assay ( Fwavelength(0h)) and after a 2-hour incubation at […]
Cell viability was assessed based on the red fluorescence signal at 665 nm, applying eq. S11 for normalization.
Cell viability = F665nm(2h, sample)-F665nm(0h, average cell-free) (S11) F665nm(2h, average unexposed)-F665nm(0h, average cell-free) […]
the specific endpoint to avoid artifacts from cytotoxicity burst. 15
S2.5: Concentration-response curves (CRCs)
To avoid bias from cytotoxicity burst at higher concentrations, all concentrations exceeding the IC10 for cytotoxicity were excluded in the CRC modeling of effects but otherwise cytotoxicity and effects were fitted with the same model equations (response stands for cytotoxicity or effect). For ERα, AhR, ARE and PPARγ preferably a linear model was fitted to the linear portion of CRC up to maximum 30% effect (eq. S12),16 but in some cases it was necessary to choose a sigmoidal log-concentration-response model, specifically a log-logistic model (eq. S13), to derive effect concentrations and cytotoxicity. For mitochondrial toxicity and neurotoxicity, the […]
are not reporter gene assays. Common practice when using log-logistic models, e.g., the model implemented in tcpl package in R,17, 18 is that the minima and maxima are also fitted and only median effect concentrations AC50 are derived. […]
concentrations (EC10) for both linear and log-sigmoidal CRCs to allow absolute comparisons at the same effect level and for TR and SR -analysis. This was done using the AutomatedBioassayScreening19 published by Braun et al.,20 which also included an algorithm to choose the best model between eq. S12 and eq. S13.
Response (%) = slope × C (S12) […]
logEC =logEC − 1 ∙log (max−min − 100%) (S14)

`CC(C)c1cc(C(C)(C)c2ccc(O)c(C(C)C)c2)ccc1O` [BPG, 2,2-Bis(4-hydroxy-3-isopropylphenyl)propane]: in data set [1], the “cytotoxicity,median REPBPA,IC10” value is given as 8.93; the “IC10,Median (M)” value is given as 7.84 × 10^–6 M; the “IC10, median” value was determined as 7.84 µM. For the same compound, on Estrogen Receptor ERα (Table S10, in M), the “EC10, after oxidation” value is on record as 3.40E-06 and the “EC10, before oxidation” value is recorded as 9.02E-07. For the same compound, on Estrogen Receptor ERα (Table S10), the TKERα is recorded as 0.2649. In addition, on Estrogen Receptor ERα (Table S11, in M), the “EC10, after oxidation” value amounted to 1.51E-05 and the “EC10, before oxidation” value is recorded as 9.71E-06. Further, the TKERα on Estrogen Receptor ERα (Table S11) worked out at 0.64.
Turning to `O=S(=O)(c1ccc(O)cc1)c1ccc(O)cc1` [BPS, 4,4'-Sulfonyldiphenol], in data set [1], the “IC10,Median (M)” value is recorded as 5.61 × 10^–4 M and the “IC10, median” value was found to be 561 µM. At Estrogen Receptor ERα (Table S10, in M), the “EC10, after oxidation” value came to 1.48E-06 and the “EC10, before oxidation” value came out at 1.65E-06. The TKERα at Estrogen Receptor ERα (Table S10) is recorded as 1.115.
As to `C=CCOc1ccc(S(=O)(=O)c2ccc(O)cc2)cc1` [BPS-MAE, 4-[[4-(Allyloxy)phenyl]sulfonyl]phenol], in data set [1], the “cytotoxicity,median REPBPA,IC10” value is listed as 0.37; the “IC10,Median (M)” value was 1.90 × 10^–4 M; the “IC10, median” value amounted to 190 µM. In addition, at Estrogen Receptor ERα (Table S10, in M), the “EC10, after oxidation” value was determined as 1.28E-05 and the “EC10, before oxidation” value amounted to 1.26E-05. For the same compound, the TKERα on Estrogen Receptor ERα (Table S10) came out at 0.9842.
For `Oc1ccc(Sc2ccc(O)cc2)cc1` [BPT, 4,4'-Thiodiphenol], in data set [1], the “cytotoxicity,median REPBPA,IC10” value is recorded as 0.74; the “IC10,Median (M)” value is 9.51 × 10^–5 M; the “IC10, median” value came to 95.1 µM. In addition, on Estrogen Receptor ERα (Table S10, in M), the “EC10, after oxidation” value is given as 1.15E-06 and the “EC10, before oxidation” value came out at 2.87E-07. For the same compound, at Estrogen Receptor ERα (Table S10), the TKERα is 0.2502. Moreover, on Estrogen Receptor ERα (Table S11, in M), the “EC10, after oxidation” value is listed as 2.70E-06 and the “EC10, before oxidation” value worked out at 2.28E-06. Besides, the TKERα at Estrogen Receptor ERα (Table S11) came to 0.85.
On to `Cc1ccc(S(=O)(=O)NC(=O)Nc2ccc(Cc3ccc(NC(=O)NS(=O)(=O)c4ccc(C)cc4)cc3)cc2)cc1` [BTUM, 4,4'-Bis(p-tolylsulfonylureido)diphenylmethane], for which, in data set [1], the “cytotoxicity,median REPBPA,IC10” value turned out to be 2.26; the “IC10,Median (M)” value is recorded as 3.10 × 10^–5 M; the “IC10, median” value is 31 µM. In addition, at Estrogen Receptor ERα (Table S10), the “EC10, before oxidation” value is “no effect” and the “EC10, after oxidation” value is given as “no effect”. The “outcome of aCYP experiments” value on Estrogen Receptor ERα (both experimental setups) is recorded as “inconclusive results”.
Take `COC(=O)C(c1ccc(O)cc1)c1ccc(O)cc1` [Bz, Methyl bis(4-hydroxyphenyl)acetate]: in data set [1], the “cytotoxicity,median REPBPA,IC10” value turned out to be 0.19; the “IC10,Median (M)” value is listed as 3.73 × 10^–4 M; the “IC10, median” value was found to be 373 µM. Moreover, on Estrogen Receptor ERα (Table S10, in M), the “EC10, after oxidation” value was 1.36E-06 and the “EC10, before oxidation” value stood at 9.90E-07. In addition, at Estrogen Receptor ERα (Table S10), the TKERα is on record as 0.7263.
Take `O=C(OCc1ccccc1)c1ccc(O)cc1` [BzPB, Benzyl 4-hydroxybenzoate]: in data set [1], the “cytotoxicity,median REPBPA,IC10” value is listed as 0.53; the “IC10,Median (M)” value was 1.32 × 10^–4 M; the “IC10, median” value turned out to be 132 µM. Further, at Estrogen Receptor ERα (Table S10, in M), the “EC10, after oxidation” value is recorded as 4.95E-06 and the “EC10, before oxidation” value was found to be 3.07E-06. Moreover, the TKERα on Estrogen Receptor ERα (Table S10) stood at 0.6192.
Take `CC(C)Oc1ccc(S(=O)(=O)c2ccc(O)cc2)cc1` [D8, 4-((4-Isopropoxyphenyl)sulfonyl)phenol]: the “cytotoxicity,median REPBPA,IC10” value in data set [1] is given as 0.21. Moreover, at Estrogen Receptor ERα (Table S10, in M), the “EC10, before oxidation” value came out at 1.21E-05.
For `CC1(C)[C@H](O)C(C)(C)[C@H]1O` [t-TMCD, trans-2,2,4,4-Tetramethyl-1,3-cyclobutanediol], in data set [1], the “cytotoxicity,median REPBPA,IC10” value worked out at 0.00783; the “IC10,Median (M)” value is 8.94 × 10^–3 M; the “IC10, median” value was found to be 8940 µM. For the same compound, the “EC10, before oxidation” value on Estrogen Receptor ERα (Table S10, in M) is reported as 3.18E-03.

For the origin of these results see article PMC12392461, “Beyond Estrogenicity: A Comparative Assessment of Bisphenol A and Its Alternatives in In Vitro Assays Questions Safety of Replacements” (Environmental Science & Technology, 2025).
